This note sets out measurements from US20130217664A1, “NOVEL COMPOUNDS USEFUL FOR THE TREATMENT OF DEGENERATIVE AND INFLAMMATORY DISEASES” (priority 2012, published 2013).

The target in test [1] is T1, human JAK3 (Homo sapiens, UniProt P52333).
T1 construct: catalytic domain (amino acids 781-1124; catalog number PV3855); purchased Invitrogen PV3855
In words: JAK3 inhibition assay. The test is classed as biochemical. The conditions noted are these: recombinant human JAK3 catalytic domain; polyGT substrate. In a few lines:
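Radiometric kinase assay: 0.5 ng JAK3 with 2.5 μg polyGT in Tris pH 7.5/MgCl2 buffer, 1 μM ATP plus 0.25 μCi 33P-γ-ATP, 1% DMSO, 45 min at 30 °C, stopped with phosphoric acid.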

Test [2] deals with pSTAT1(2)-luciferase reporter in HeLa cells triggered with human OSM. The experiment in a line: JAK-STAT signalling assay. The test is classed as cell-based. The conditions noted are these: read-out: JAK-STAT IC50. In a few lines:
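HeLa cells transiently co-transfected with pSTAT1(2)-luciferase and LacZ control reporter, preincubated with compound 60 min, then stimulated with human OSM (33 ng/mL final) overnight at 37 °C. Luciferase read by luminescence; percent inhibition from vehicle and no-trigger controls, EC50 from dose-response.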

Where [3] appears, read: Homo sapiens, HeLa, HeLa cells, pSTAT1(2)-luciferase reporter, human OSM 33 ng/mL.
[4] abbreviates: HeLa cells, pSTAT1(2)-luciferase reporter, human OSM 33 ng/mL.

SMILES strings stand for the structures. Like-named read-outs stand apart in the source and are kept apart here.

T1 sequence (P52333 781-1124): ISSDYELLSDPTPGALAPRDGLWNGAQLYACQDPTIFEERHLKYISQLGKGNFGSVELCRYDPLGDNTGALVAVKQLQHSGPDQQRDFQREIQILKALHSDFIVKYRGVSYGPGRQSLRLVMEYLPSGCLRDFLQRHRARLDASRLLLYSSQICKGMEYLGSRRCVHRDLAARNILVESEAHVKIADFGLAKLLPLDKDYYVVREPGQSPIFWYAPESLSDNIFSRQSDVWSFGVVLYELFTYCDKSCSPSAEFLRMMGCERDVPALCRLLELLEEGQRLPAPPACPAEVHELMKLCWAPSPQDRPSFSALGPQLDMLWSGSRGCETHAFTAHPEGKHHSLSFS

As for `CCc1cc(C(=O)OC)ccc1N(C)c1cc2c(cn1)ncn2C` [Compound 80, Methyl 3-ethyl-4-(methyl(1-methyl-1H-imidazo[4,5-c]pyridin-6-yl)amino)benzoate], the half-inhibitory concentration (IC50) in test [1] and in test [2] (setting [3]) was above 1000 nM throughout.
Consider `CCc1ccc(C#N)cc1N(C)c1cc2c(cn1)ncn2C` [Compound 83, 4-ethyl-3-(methyl(1-methyl-1H-imidazo[4,5-c]pyridin-6-yl)amino)benzonitrile], for which the IC50 in test [1] and in test [2] (setting [3]) was above 1000 nM each time.
As for `CCc1ccc(F)cc1N(C)c1cc2c(cn1)ncn2C` [Compound 84, N-(2-ethyl-5-fluorophenyl)-N,1-dimethyl-1H-imidazo[4,5-c]pyridin-6-amine], the IC50 in test [1] and in test [2] (setting [3]) was 501 to 1000 nM each time.
Turning to `CCc1cc(C(=O)NC)ccc1N(C)c1cc2c(cn1)ncn2C` [Compound 85], the half-inhibitory concentration (IC50) in test [1] and in test [2] (setting [3]) was above 1000 nM each time.
With `CCc1cc(C(=O)NCCC#N)ccc1N(C)c1cc2c(cn1)ncn2C` [Compound 86, N-(2-Cyanoethyl)-3-ethyl-4-(methyl(1-methyl-1H-imidazo[4,5-c]pyridin-6-yl)amino)benzamide], the IC50 in test [1] and in test [2] (setting [3]) was above 1000 nM throughout.
In the case of `Cc1ccc(Oc2ccc(C#N)nc2)cc1N(C)c1cc2c(cn1)ncn2C` [Compound 91, 5-(4-methyl-3-(methyl(1-methyl-1H-imidazo[4,5-c]pyridin-6-yl)amino)phenoxy)picolino-nitrile], the concentration for half-maximal inhibition (IC50) in test [1] and in test [2] (setting [4]) was above 1000 nM each time.
`CCc1cc(-c2cccnc2)ccc1N(C)c1cc2c(cn1)ncn2C` [Compound 94, N-(2-ethyl-4-(pyridin-3-yl)phenyl)-N,1-dimethyl-1H-imidazo[4,5-c]pyridin-6-amine]: the IC50 in test [1] was in the range of 501 to 1000 nM; in test [2] (setting [3]), 1 to 500 nM.
In the case of `CCc1cc(C(=O)NCc2ccccc2)ccc1N(C)c1cc2c(cn1)ncn2C` [Compound 98, N-benzyl-3-ethyl-4-(methyl(1-methyl-1H-imidazo[4,5-c]pyridin-6-yl)amino)benzamide], the IC50 in test [1] was 501 to 1000 nM; in test [2] (setting [3]), above 1000 nM.
Take `CCNC(=O)c1ccc(N(C)c2cc3c(cn2)ncn3C)c(CC)c1` [Compound 102, N,3-diethyl-4-(methyl(1-methyl-1H-imidazo[4,5-c]pyridin-6-yl)amino)benzamide]: the IC50 in test [1] and in test [2] (setting [3]) was above 1000 nM throughout.
For the molecule `CCc1cc(C(C)(C)O)ccc1N(C)c1cc2c(cn1)ncn2C` [Compound 103, 2-(3-Ethyl-4-(methyl(1-methyl-1H-imidazo[4,5-c]pyridin-6-yl)amino)phenyl)propan-2-ol], the IC50 is 101 to 500 nM in test [1] and above 1000 nM in test [2] (setting [3]).
In the case of `CCc1cc(COC)ccc1N(C)c1cc2c(cn1)ncn2C` [Compound 105, N-(2-Ethyl-4-(methoxymethyl)phenyl)-N,1-dimethyl-1H-imidazo[4,5-c]pyridin-6-amine], the half-maximal inhibitory concentration (IC50) is 101 to 500 nM in test [1] and above 1000 nM in test [2] (setting [3]).
For `CCc1cc(O)ccc1N(C)c1cc2c(cn1)ncn2C` [Compound 107, 3-ethyl-4-(methyl(1-methyl-1H-imidazo[4,5-c]pyridin-6-yl)amino)phenol], the values for the IC50 in test [1] and in test [2] (setting [3]) were 101 to 500 nM and 501 to 1000 nM, respectively.
Regarding `CCc1cc(OC2CCN(S(C)(=O)=O)C2)ccc1N(C)c1cc2c(cn1)ncn2C` (stereo not drawn) [Compound 110, N-(2-Ethyl-4-((1-(methylsulfonyl)pyrrolidin-3-yl)oxy)phenyl)-N,1-dimethyl-1H-imidazo[4,5-c]pyridin-6-amine], the half-inhibitory concentration (IC50) in test [1] is 101 to 500 nM; in test [2] (setting [3]) it was above 1000 nM.
Turning to `CCc1cc(Cn2ccnc2)ccc1N(C)c1cc2c(cn1)ncn2C` [Compound 111, N-(4-((1H-imidazol-1-yl)methyl)-2-ethylphenyl)-N,1-dimethyl-1H-imidazo[4,5-c]pyridin-6-amine], the IC50 lay in the range of 101 to 500 nM in test [1] and 501 to 1000 nM in test [2] (setting [3]).
On to `CCc1cc(-c2ccc(C#N)nc2)ccc1N(C)c1cc2c(cn1)ncn2C` [Compound 114, 5-(3-ethyl-4-(methyl(1-methyl-1H-imidazo[4,5-c]pyridin-6-yl)amino)phenyl)picolino-nitrile], for which the IC50 in test [1] lay within 101 to 500 nM; in test [2] (setting [3]) it was 1 to 500 nM.
The matching figures for `CCc1cc(C(=O)NCCN(C)C)ccc1N(C)c1cc2c(cn1)ncn2C` [Compound 119, N-(2-(dimethylamino)ethyl)-3-ethyl-4-(methyl(1-methyl-1H-imidazo[4,5-c]pyridin-6-yl)amino)benzamide]: above 1000 nM and above 1000 nM.
Regarding `CCc1cc(C(=O)NCC#N)ccc1N(C)c1cc2c(cn1)ncn2C` [Compound 120, N-(cyanomethyl)-3-ethyl-4-(methyl(1-methyl-1H-imidazo[4,5-c]pyridin-6-yl)amino)benzamide], the half-maximal inhibitory concentration (IC50) in test [1] is 101 to 500 nM; in test [2] (setting [3]), above 1000 nM.
Regarding `CCc1ccc(C(=O)NC(C)(C)C)cc1N(C)c1cc2c(cn1)ncn2C` [Compound 123, N-tert-butyl-4-ethyl-3-(methyl(1-methyl-1H-imidazo[4,5-c]pyridin-6-yl)amino)benzamide], the IC50 in test [1] and in test [2] (setting [3]) was above 1000 nM in each case.
In the case of `CCc1cc(-c2ccsc2)ccc1N(C)c1cc2c(cn1)ncn2C` [Compound 127, N-(2-ethyl-4-(thiophen-3-yl)phenyl)-N,1-dimethyl-1H-imidazo[4,5-c]pyridin-6-amine], the IC50 was in the range of 0.01 to 100 nM in test [1] and 1 to 500 nM in test [2] (setting [3]).
As to `CCc1cc(-c2ccc(CNC(=O)OC(C)(C)C)s2)ncc1N(C)c1cc2c(cn1)ncn2C` [Compound 302], the IC50 in test [1] and in test [2] (setting [4]) was above 1000 nM in each case.
On to `CCc1cc(-c2ccc(CN)s2)ncc1N(C)c1cc2c(cn1)ncn2C` [Compound 303, [6-(5-Aminomethyl-thiophen-2-yl)-4-ethyl-pyridin-3-yl]-methyl-(1-methyl-1H-imidazo[4,5-c]pyridin-6-yl)-amine], for which the IC50 in test [1] and in test [2] (setting [4]) was above 1000 nM each time.
Regarding `CCc1cc(-c2ccc(Cl)s2)ncc1N(C)c1cc2c(cn1)ncn2C` [Compound 304, [6-(5-Chloro-thiophen-2-yl)-4-ethyl-pyridin-3-yl]-methyl-(1-methyl-1H-imidazo[4,5-c]pyridin-6-yl)-amine], the IC50 in test [1] was 0.01 to 100 nM; in test [2] (setting [4]), 1 to 500 nM.
Take `CCc1cc(-c2ccc(C)s2)ncc1N(C)c1cc2c(cn1)ncn2C` [Compound 311, [4-Ethyl-6-(5-methyl-thiophen-2-yl)-pyridin-3-yl]-methyl-(1-methyl-1H-imidazo[4,5-c]pyridin-6-yl)-amine]: the concentration for half-maximal inhibition (IC50) in test [1] was in the range of 101 to 500 nM; in test [2] (setting [3]) it was 1 to 500 nM.
Regarding `COc1cc(-c2c(C)nn(C)c2C)ncc1N(C)c1cc2c(cn1)ncn2C` [Compound 312], the IC50 in test [1] and in test [2] (setting [4]) was above 1000 nM each time.
Consider `COc1cc(N2CCOCC2)ncc1N(C)c1cc2c(cn1)ncn2C` [Compound 313, (4-Methoxy-6-morpholin-4-yl-pyridin-3-yl)-methyl-(1-methyl-1H-imidazo[4,5-c]pyridine-6-yl)-amine], for which the IC50 was 501 to 1000 nM in test [1] and above 1000 nM in test [2] (setting [4]).
With `COc1ccc(S(=O)(=O)N2CCCCC2)cc1N(C)c1cc2c(cn1)ncn2C` [Compound 314, [2-Methoxy-5-(piperidine-1-sulfonyl)-phenyl]-methyl-(1-methyl-1H-imidazo[4,5-d]pyridin-6-yl)-amine], the 50% inhibitory concentration (IC50) in test [1] and in test [2] (setting [4]) was above 1000 nM in each case.
With `COc1cc(S(=O)(=O)N2CCOCC2)ccc1N(C)c1cc2c(cn1)ncn2C` [Compound 315, [2-Methoxy-4-(morpholine-4-sulfonyl)-phenyl]-methyl-(1-methyl-1H-imidazo[4,5-d]pyridin-6-yl)-amine], the 50% inhibitory concentration (IC50) in test [1] and in test [2] (setting [4]) was above 1000 nM throughout.
On to `CCc1cn(CCC#N)nc1N(C)c1cc2c(cn1)ncn2C` [Compound 316, 3-{4-Ethyl-3-[methyl-(1-methyl-1H-imidazo[4,5-c]pyridin-6-yl)-amino]-pyrazol-1-yl}-propionitrile], for which the IC50 in test [1] was above 1000 nM; in test [2] (Homo sapiens, HeLa) it was above 1000 nM.
`CN(c1cc2c(cn1)ncn2C)c1ccc(CNC(=O)C(F)F)cc1F` [Compound 320]: the half-maximal inhibitory concentration (IC50) in test [1] was 501 to 1000 nM; in test [2] (setting [3]) it was above 1000 nM.
The matching figures for `CCc1cc(C#N)cc(F)c1N(C)c1cc2c(cn1)ncn2C` [Compound 322, 3-Ethyl-5-fluoro-4-[methyl-(1-methyl-M-imidazo[4,5-c]pyridin-6-yl)-amino]-benzonitrile]: above 1000 nM and above 1000 nM.
Regarding `CCc1cc(CNS(=O)(=O)C(F)F)cc(F)c1N(C)c1cc2c(cn1)ncn2C` [Compound 324, N-{3-Ethyl-5-fluoro-4-[methyl-(1-methyl-1H-imidazo[4,5-c]pyridin-6-yl)-amino]-benzyl}-C,C-difluoro-methanesulfonamide], the IC50 in test [1] was in the range of 0.01 to 100 nM; in test [2] (setting [3]), 1 to 500 nM.
The matching figures for `CCc1cc(CNC(=O)C(F)F)c(F)cc1N(C)c1cc2c(cn1)ncn2C` [Compound 326, N-{5-Ethyl-2-fluoro-4-[methyl-(1-methyl-M-imidazo[4,5-c]pyridin-6-yl)-amino]-benzyl}-2,2-difluoro-acetamide]: 101 to 500 nM and 501 to 1000 nM.
For `CCc1cc(C2CN(S(=O)(=O)C(C)C)C2)ncc1N(C)c1cc2c(cn1)ncn2C` [Compound 330, {4-Ethyl-6-[1-(propane-2-sulfonyl)-azetidin-3-yl]-pyridin-3-yl}-methyl-(1-methyl-1H-imidazo[4,5-c]pyridin-6-yl)-amine], the IC50 in test [1] and in test [2] (setting [4]) was above 1000 nM in each case.
